# Data from patent publication US20120095013A1, “USE OF KMUP-3 FOR MYOCARDIAL INFARCTION” (KAOHSIUNG MEDICAL UNIVERSITY, priority 2010, published 2012).
# How the values were obtained:
# MMP-9 [1] = experiment: Western blot of MMP-9 protein expression in rat hearts; assay type: in vivo; conditions: Western blot densitometry, n=9-10, FIG. 5a
# TIMP-1 [2] = experiment: Western blot of TIMP-1 protein expression in rat hearts; assay type: in vivo; conditions: Western blot densitometry, n=9-10, FIG. 5b
# [3] = test system: endothelial nitric oxide synthase (eNOS); conditions: Wu et al., 2005; Lin et al., 2006; cited from earlier work
# MI rats [4] = experiment: Echocardiography 4 weeks post-surgery in MI rats (LVEDD, LVESD, fractional shortening); assay type: in vivo, rat; conditions: KMUP-3 for 4 weeks, FIG. 2
# Source text: (§1) MI is induced by ligation of the left anterior descending (LAD) coronary artery according to Liang et al., 2006. […] The LAD is ligated with 6.0 silk at 2 mm from the origin, and the wound is closed with primary suture. After the operation, the animals are observed until fully conscious. Sham animals undergo similar thoracotomy and pericardiotomy, except that the ligature around the coronary artery is not tied. Surviving rats are fitted with ALZET osmotic minipumps (Model 2ML4, DURECT Corporation, Cupertino, Calif., USA) immediately after recovery. At this time, most of the rats are still anaesthetized from the previously administered pentobarbital sodium; a further bolus dose of pentobarbital sodium (15 mg·kg^−1) is given if necessary. […] In the treatment group, the minimumps are filled with hydrochloride of KMUP-3 (KMUP-3·HCl; 0.3 mg·kg^−1·day^−1). In the sham and MI groups, the minipumps are filled with saline.
# MI rats [5] = experiment: Cardiac structure and haemodynamics in rats after myocardial infarction (LAD ligation), LV catheter; assay type: in vivo, rat
# Source text: Male rats (250-300 g) are provided by the National Laboratory Animal Breeding and Research Center (Taipei, Taiwan) and housed under constant temperature and controlled illumination. Food and water are available ad libitum. MI is induced by ligation of the left anterior descending (LAD) coronary artery according to Liang et al., 2006. […] The LAD is ligated with 6.0 silk at 2 mm from the origin, and the wound is closed with primary suture. After the operation, the animals are observed until fully conscious. Sham animals undergo similar thoracotomy and pericardiotomy, except that the ligature around the coronary artery is not tied. All the animals are administered with s.c. doses of analgesia (ketoprofen; 3 mg·kg^−1) and antibiotics (gentamicin; 0.7 mg·kg^−1) for 2 days. This study was approved by the Animal Care and Use Committee at Kaohsiung Medical University. Surviving rats are fitted with ALZET osmotic minipumps (Model 2ML4, DURECT Corporation, Cupertino, Calif., USA) immediately after recovery. At this time, most of the rats are still anaesthetized from the previously administered pentobarbital sodium; a further bolus dose of pentobarbital sodium (15 mg·kg^−1) is given if necessary. […] In the treatment group, the minimumps are filled with hydrochloride of KMUP-3 (KMUP-3·HCl; 0.3 mg·kg^−1·day^−1). In the sham and MI groups, the minipumps are filled with saline. After echocardiography, a PE-50 catheter is inserted through the right carotid artery to measure the LV systolic pressure (LVSP), LV end-diastolic pressure (LVEDP) and maximum rates of pressure development (LV+dP/dt) and relaxation (LV−dP/dt). […] The hearts are then excised and the atria and right ventricles are dissected out. Sections of the LV are embedded in mounting medium and the remaining tissues are transferred in the liquid nitrogen for further evaluation. Throughout the whole procedure, a further bolus dose of pentobarbital sodium (15 mg·kg^−1) is given if required.
# eNOS = experiment: Western blot of eNOS protein expression in rat hearts; assay type: in vivo; conditions: Western blot densitometry, versus MI group, FIG. 5c
# MI rats [6] = experiment: Area of risk (Evans blue) and infarct size (TTC staining) in MI rats; assay type: in vivo, rat
# Source text: as §1, with “mg·kg^-1)” for “mg·kg^−1)”, “mg·kg^-1·day^-1).” for “mg·kg^−1·day^−1).”, “saline. Histological analyses are performed to all of the heart. Rats are randomly chosen to be analyzed for area of risk after coronary artery ligature by Evan blue staining as described by Harada et al. (2005). […] Ten sections in each heart are analyzed for the percentage of fibrosis. […] The total LV and infarct area and fibrosis region are measured by an investigator without knowledge of the treatment group using US NIH ImageJ, 1.42q.” for “saline.”
# phosphodiesterase = conditions: Wu et al., 2005; Lin et al., 2006; cited from earlier work
# MI rats [7] = experiment: Cardiac fibrosis by Masson's trichrome staining in MI rats; assay type: in vivo, rat
# Source text: as §1, with “mg·kg^-1)” for “mg·kg^−1)”, “mg·kg^-1·day^-1).” for “mg·kg^−1·day^−1).”, “saline. Histological analyses are performed to all of the heart. Rats are randomly chosen to be analyzed for area of risk after coronary artery ligature by Evan blue staining as described by Harada et al. (2005). […] Ten sections in each heart are analyzed for the percentage of fibrosis. […] The total LV and infarct area and fibrosis region are measured by an investigator without knowledge of the treatment group using US NIH ImageJ, 1.42q.” for “saline.”
# MMP-9 [8] = experiment: MMP-9 protein expression in TGF-β-stimulated human cardiac fibroblasts (HCFs); assay type: cell-based
# Method: (§2) Human cardiac fibroblasts (HCFs; catalogue number: 306-05f) are purchased from Cell Applications Inc. (San Diego, Calif., USA). The cells are cultured as monolayer in Dulbecco's modified Eagle's medium containing 10% fetal bovine serum at 37° C. in 95% humidity and 5% CO2. Cells are harvested at passage 3-6 for experiment. Before treatment, HCFs are washed twice with serum-free medium and switched to serum-free medium for 24 h. To stimulate MMP-9 expression, the cultures are treated with 10 ng·mL^−1 transforming growth factor-b (TGF-β) for 24 h. HCFs are pretreated with KMUP-3 (10 mmol·L^−1) or in combination with L-NAME (100 mmol·L^−1) for 1 h before addition of 10 ng·mL^−1 TGF-β for 24 h. Each experiment is repeated three times.
# (§3) The hearts are sonicated in 50 mmol·L^−1 Tris for 10 s two times and centrifuged at 13,000 rpm at 4° C. for 30 min. The protein concentration of the supernatants is determined by using bovine serum albumin as the standard. The cell extracts are boiled in ratio of 4:1 with sample buffer (100 mmol·L^−1 Tris, pH 6.8, 20% glycerol, 4% SDS, and 0.2% bromophenol blue). Electrophoresis is performed using 10% SDS-polyacrylamide gel electrophoresis and transferred to nitrocellulose membranes (Millipore Corporation, Billerica, Mass., USA). […] The intensity of the bands is quantified by densitometry.
# TIMP-1 [9] = experiment: TIMP-1 protein expression in TGF-β-stimulated human cardiac fibroblasts (HCFs); assay type: cell-based; conditions: KMUP-3 10 mmol·L−1, TGF-β 10 ng·mL−1, FIG. 6b
# Method: as §2, §3
# aortic smooth muscle = conditions: through opening a KATP channel and increasing eNOS; attenuated by glibenclamide; Wu et al., 2005; Lin et al., 2006; cited from earlier work
# hypertensive rats = conditions: Wu et al., 2001, Yeh et al., 2010; cited from earlier work
# [10] = KMUP-3·HCl 0.3 mg·kg−1·day−1 by osmotic minipump, 4 weeks, n=10
smiles,measurement,setting,value
"Cn1c(=O)c2c(ncn2CCN2CCN(c3ccc([N+](=O)[O-])cc3)CC2)n(C)c1=O [KMUP-3, 7-[2-[4-(4-nitrobenzene)-piperazinyl]ethyl]-1,3-dimethylxanthine]",MMP-9 expression in MI rat hearts,MMP-9 [1],decreases MMP-9 expression
same,TIMP-1 expression in MI rat hearts,TIMP-1 [2],increases significantly
same,"eNOS in HUVECs, in words",[3],enhance endothelial nitric oxide synthase (eNOS)
same,"Cardiac remodeling and dysfunction by echocardiography (LVEDD, LVESD, FS), in words",MI rats [4],cardiac remodeling and dysfunction may be prevented
same,"Cardiac systolic function (LV+dP/dt), in words",MI rats [5]; 0.3 mg·kg−1·day−1 for 4 weeks,improved cardiac systolic function
same,"Cardiac remodelling (hypertrophy, heart weight to body weight ratio), in words",MI rats [5]; KMUP-3 treatment 4 weeks,prevents the cardiac remodelling process
same,HR (heart rate),MI rats [5]; [10],421 ± 5 bpm
same,HW (heart weight),MI rats [5]; [10],1219 ± 39 mg
same,HW/BW,MI rats [5]; [10],2.72 ± 0.04 mg/g
same,LV +dP/dt,MI rats [5]; [10],7637 ± 333 mmHg/s
same,LV −dP/dt,MI rats [5]; [10],−5379 ± 441 mmHg/s
same,LVEDP,MI rats [5]; [10],12.6 ± 2.3 mmHg
same,LVSP,MI rats [5]; [10],140.6 ± 4.2 mmHg
same,"Heart rate change, in words","MI rats [5]; after KMUP-3 treatment, not statistically significant",small increase in heart rate
same,eNOS expression in MI rat hearts,eNOS,increases significantly
same,Area of risk after coronary artery ligature,"MI rats [6]; Evans blue staining, n=5, FIG. 3a",no difference between treatment groups
same,Infarction size (infarct area of LV),"MI rats [6]; TTC staining, MI rats after KMUP-3 treatment, n=10, MI group 47.4±3.7%, P<0.05",33.6±1.7%
same,"Phosphodiesterase inhibitor potency, in words",phosphodiesterase,more potent than KMUP-1
same,Cardiac fibrosis in central-infarct and peri-infarct areas,"MI rats [7]; n=10, FIG. 4a-b",attenuates cardiac fibrosis
same,Percentage of fibrosis in non-infarcted area,"MI rats [7]; n=10, FIG. 4c",comparable with that of the sham-operated hearts
same,MMP-9 expression in HCFs,"MMP-9 [8]; KMUP-3 10 mmol·L−1, 1 h before TGF-β 10 ng·mL−1 for 24 h, FIG. 6a",attenuates the expression of MMP-9
same,TIMP-1 expression in HCFs,TIMP-1 [9],significantly enhanced
same,"Aortic smooth muscle relaxation, in words",aortic smooth muscle,may induce aortic smooth muscle relaxation
"Cn1c(=O)c2c(ncn2CCN2CCN(c3ccccc3Cl)CC2)n(C)c1=O [KMUP-1, 7-[2-[4-(2-chlorobenzene)piperazinyl]ethyl]-1,3-dimethylxanthine]","Cardioprotection, cardiac hypertrophy and fibrosis, in words",hypertensive rats,"therapeutic effect on the cardioprotection in hypertensive rats, the reducing of the cardiac hypertrophy and fibrosis"
"COC(=O)[C@@H](N)CCCNC(=N)N[N+](=O)[O-] [L-NAME, N^ω-nitro-L-arginine methyl ester, reference compound]",Effect of eNOS inhibitor pretreatment on KMUP-3 inhibition of MMP-9 expression in HCFs,"MMP-9 [8]; L-NAME 100 mmol·L−1 with KMUP-3 10 mmol·L−1, TGF-β 10 ng·mL−1, FIG. 6a",reverses the inhibition of MMP-9 expression
